{"source": "paper PMC3522636", "about": "“4F Decreases IRF5 Expression and Activation in Hearts of Tight Skin Mice” (PLoS ONE, 2012)", "key": {"HDL": {"system": "HDL", "conditions": "proposed mechanism; cited from earlier work", "description": "(§1) Although there is much support for the idea that 4F inhibits atherosclerosis by improving HDL function, the mechanism by which 4F decreases inflammation has not been identified completely. […] During the course of our studies for our report, [3], we found the anti-inflammatory effects of 4F on the Tsk^−/+ mice to be so profound that it was ..."}, "[1]": {"conditions": "cited from earlier work", "description": "as §1"}, "Tsk−/+ mice": {"system": "Tsk−/+ mice", "assay": "Transthoracic echocardiography, posterior wall thickness / heart function", "type": "in vivo, mouse", "description": "All experimental procedures and protocols involving mice were reviewed and approved by the Institutional Animal Care and Use Committee (IACUC) of the Medical College of Wisconsin (AUA#512). They also conformed to the rules in the Guiding Principles in the Care and Use of Animals published by the American Physiologic Society and the Guide for the Care and Use of Laboratory Animals published by OLAW. Male Tsk^−/+ and C57Bl/6J mice (6–8 weeks of age) were purchased from Jackson Laboratories (Bar Harbor, ME). Three groups of mice were studied; C57Bl/6J, Tsk^−/+, and Tsk^−/+ mice treated with 4F (1 mg/kg/d, sc) as published previously.\nTsk^−/+ and C57BL/6J mice (n = 6) were anesthetized by isoflurane inhalation (1.50%) and oxygen. They were place on a warming platform supine position. A VisualSonics Vevo 770 high-resolution imaging system (Toronto, Canada) equipped with a 30-MHz transducer (Scanhead RMV 707) was used to perform the transthoracic echocardiography. Two-dimensional guided M-mode LV dimensions were measured and posterior wall thickness was analyzed."}}, "note": "“Also recorded” adds a separate entry of the source.", "data": [{"substance": "Ac-DWFKAFYDKVAEKFKEAF-NH2 [4F]", "values": [{"measurement": "preβ HDL formation and HDL-dependent cholesterol efflux", "setting": "HDL", "result": "formation of preβ HDL with improved HDL-dependent cholesterol efflux"}, {"measurement": "reverse cholesterol transport", "setting": "HDL", "result": "improvements in reverse cholesterol transport"}, {"measurement": "affinity for oxidized versus native lipids", "setting": "[1]", "result": "greater affinity for oxidized rather than native lipids"}, {"measurement": "posterior wall thickness", "setting": "Tsk−/+ mice; 4F 1 mg/kg/d, sc, 6–8 weeks, 4F-treated Tsk−/+ vs untreated Tsk−/+ mice, p<0.05, n = 6, M-mode echocardiography, isoflurane", "result": "significantly increased in Tsk^−/+ compared to C57Bl/6J (control) and Tsk^−/+ mice with 4F treatment; also recorded: significantly higher in the Tsk^−/+ mice compared to C57Bl/6J and Tsk^−/+ mice treated with 4F; also recorded: significantly improved"}, {"measurement": "onset of heart failure", "setting": "Tsk−/+ mice; 4F treatment of Tsk−/+ mice (Figure 1)", "result": "appear to delay the onset of heart failure in Tsk^−/+ mice"}]}]}
